Assay results from ChEMBL document CHEMBL1201862, “PubChem BioAssay data set” (2004).
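In this assay, cells in 96-well plates receive the compound at five concentrations for 48 hours. Endpoints are linearly interpolated between the surrounding concentrations. GI50 = concentration required for 50% inhibition of growth.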 Calls of active or inactive are those of the source. No stated cut-off is given here; in the data, active = GI50 up to about 1.1 µM and inactive = higher.

Tests used:
Experiment in all cases: NCI tumour cell line growth inhibition, 48 h
[1] = test system: NCI-H522
[2] = test system: Malme-3M
[3] = test system: MCF7
[4] = test system: NCI/ADR-RES
[5] = test system: RXF 393
[6] = test system: CAKI-1
[7] = test system: T47D
[8] = test system: DU-145
[9] = test system: HT-29
[10] = test system: SK-MEL-28
[11] = test system: KM12
[12] = test system: COLO 205
[13] = test system: UACC-257
[14] = test system: K562
[15] = test system: SF-295
[16] = test system: NCI-H23
[17] = test system: OVCAR-8
[18] = test system: Hs-578T
[19] = test system: MDA-MB-231
[20] = test system: IGROV-1

| Structure (SMILES) | GI50 [1] | GI50 [2] | GI50 [3] | GI50 [4] | GI50 [5] | GI50 [6] | GI50 [7] | GI50 [8] | GI50 [9] | GI50 [10] | GI50 [11] | GI50 [12] | GI50 [13] | GI50 [14] | GI50 [15] | GI50 [16] | GI50 [17] | GI50 [18] | GI50 [19] | GI50 [20] |
| --- | --- | --- | --- | --- | --- | --- | --- | --- | --- | --- | --- | --- | --- | --- | --- | --- | --- | --- | --- | --- |
| C/C=C/[C@@H]1O[C@H](CC#C[Si](C)(C)C)[C@@]2(C=O)C(C)=CC[C@H](C(C)C)[C@@H]12 | 2.09 µM (inactive) | 19 µM (inactive) | 22.5 µM (inactive) | 23.3 µM (inactive) | 18 µM (inactive) | 1.94 µM (inactive) | 30.8 µM (inactive) | 21.3 µM (inactive) | 19.5 µM (inactive) | 20.3 µM (inactive) | 17.7 µM (inactive) | 21.5 µM (inactive) | 12.9 µM (inactive) | 14.7 µM (inactive) | 21.9 µM (inactive) | 22.2 µM (inactive) | 23.4 µM (inactive) | 33.3 µM (inactive) | 17.3 µM (inactive) | 2.82 µM (inactive) |
| O=C(/C=C/c1ccc(Oc2cc(C(=O)/C=C/c3ccc(O)cc3)c(O)cc2O)cc1)c1ccc(O)cc1O [RHUSCHALCONE II] | 4.82 µM (inactive) | 10.6 µM (inactive) | 4.26 µM (inactive) | 3.85 µM (inactive) | 4.97 µM (inactive) | 4.14 µM (inactive) | 5.93 µM (inactive) | 3.38 µM (inactive) | 1.92 µM (inactive) | 2.52 µM (inactive) | 2.15 µM (inactive) | 2.61 µM (inactive) | 12.7 µM (inactive) | 3.47 µM (inactive) | 5.96 µM (inactive) | 6.19 µM (inactive) | 2.64 µM (inactive) | 7.28 µM (inactive) | 5.08 µM (inactive) | 3.38 µM (inactive) |
| COc1cc(C2S/C(=C/c3ccccc3)C(=O)N2c2cc(Cl)c(Cl)cc2Cl)cc(OC)c1OC (stereo not given) | 16.9 µM (inactive) | 26.2 µM (inactive) | 30.4 µM (inactive) | 30.6 µM (inactive) | > 100 µM (inactive) | > 40.8 µM (inactive) | > 50.8 µM (inactive) | 30.2 µM (inactive) | 46.2 µM (inactive) | > 64 µM (inactive) | 25.7 µM (inactive) | 53.6 µM (inactive) | 54.5 µM (inactive) | 29 µM (inactive) | 49.3 µM (inactive) | 43.2 µM (inactive) | 40 µM (inactive) | 9.27 µM (inactive) | > 66.8 µM (inactive) | 23.9 µM (inactive) |
| C=C1C(=O)O[C@@H]2C(=O)[C@@H](C)[C@@H]3C=CC(=O)[C@@]3(C)[C@@H](OC(=O)/C(C)=C\C)[C@H]12 [MULTISTATIN] | 0.0883 µM (active) | 0.298 µM (active) | 0.394 µM (active) | 2.37 µM (inactive) | 0.378 µM (active) | 0.264 µM (active) | 0.483 µM (active) | 1.57 µM (inactive) | 0.371 µM (active) | 0.278 µM (active) | 2.3 µM (inactive) | 0.237 µM (active) | 1.47 µM (inactive) | 0.293 µM (active) | 13 µM (inactive) | 2.88 µM (inactive) | 1.73 µM (inactive) | 6.44 µM (inactive) | 1.88 µM (inactive) | 1.48 µM (inactive) |
| O=C1CSC(c2ccccc2O)N1c1ccc(-n2c(-c3ccccc3)nc3ccccc3c2=O)cc1 (stereo not given) | 19.9 µM (inactive) | 22.2 µM (inactive) | 28.1 µM (inactive) | 21 µM (inactive) | 42.7 µM (inactive) | 29.2 µM (inactive) | 14.9 µM (inactive) | 29.2 µM (inactive) | 27.1 µM (inactive) | 28.4 µM (inactive) | 20.9 µM (inactive) | 30.3 µM (inactive) | 26.7 µM (inactive) | 15.2 µM (inactive) | 16.4 µM (inactive) | 31.6 µM (inactive) | 24.3 µM (inactive) | 23.4 µM (inactive) | 4.76 µM (inactive) | 25.5 µM (inactive) |
| CCN(CC)Cc1cc(/N=N\c2c(O)ccc3c(/N=N\c4ccc(O)c(CN(CC)CC)c4)c(O)ccc23)ccc1O | 2.31 µM (inactive) | 4.5 µM (inactive) | 2.39 µM (inactive) | 4.57 µM (inactive) | 2.94 µM (inactive) | 2.1 µM (inactive) | 10.3 µM (inactive) | 2.65 µM (inactive) | 2.57 µM (inactive) | 5.96 µM (inactive) | 1.18 µM (inactive) | 1.61 µM (inactive) | 5.75 µM (inactive) | 2.21 µM (inactive) | 5.01 µM (inactive) | 3.56 µM (inactive) | 2.12 µM (inactive) | 3.73 µM (inactive) | 2.05 µM (inactive) | 2.99 µM (inactive) |
| Cc1ccc(NC(=O)c2cccc(OP(=O)(O)Nc3ccc(C)cc3)c2)cc1 | 18.7 µM (inactive) | > 100 µM (inactive) | > 100 µM (inactive) | > 100 µM (inactive) | > 100 µM (inactive) | > 100 µM (inactive) | 79.3 µM (inactive) | > 100 µM (inactive) | > 100 µM (inactive) | > 100 µM (inactive) | > 100 µM (inactive) | > 100 µM (inactive) | > 100 µM (inactive) | > 100 µM (inactive) | > 100 µM (inactive) | > 100 µM (inactive) | > 100 µM (inactive) | > 100 µM (inactive) | 74.1 µM (inactive) | > 100 µM (inactive) |
| COC(=O)c1c2c(cc3c1CC1(Cc4ccccc4C1)C3)CCC2 | 14 µM (inactive) | 20.2 µM (inactive) | 6.38 µM (inactive) | 22.2 µM (inactive) | 16.9 µM (inactive) | 19.8 µM (inactive) | 15.8 µM (inactive) | 47.4 µM (inactive) | 13.8 µM (inactive) | 24.2 µM (inactive) | 13 µM (inactive) | 16.6 µM (inactive) | 17.6 µM (inactive) | 4.32 µM (inactive) | 24.5 µM (inactive) | 31.3 µM (inactive) | 35.2 µM (inactive) | 22.9 µM (inactive) | 14.8 µM (inactive) | 22.5 µM (inactive) |
| COc1ccc(C2=CC(c3ccc4c(c3)OCO4)c3c(c4ccccc4oc3=O)O2)cc1OC (stereo not given) | 0.486 µM (active) | > 81.8 µM (inactive) | 0.454 µM (active) | 1.41 µM (inactive) | 0.764 µM (active) | 1.1 µM (active) | 0.685 µM (active) | 2.25 µM (inactive) | 0.536 µM (active) | > 55.2 µM (inactive) | 1.76 µM (inactive) | 1.51 µM (inactive) | > 100 µM (inactive) | 0.415 µM (active) | 0.374 µM (active) | 2.51 µM (inactive) | 3.53 µM (inactive) | 1.65 µM (inactive) | 4.02 µM (inactive) | 0.743 µM (active) |
| Nc1nc(SCc2ccccn2)c2ncn(C3CCCC3)c2n1 | 59.7 µM (inactive) | 82 µM (inactive) | > 100 µM (inactive) | > 100 µM (inactive) | > 100 µM (inactive) | > 100 µM (inactive) | 76 µM (inactive) | > 100 µM (inactive) | > 100 µM (inactive) | > 100 µM (inactive) | > 100 µM (inactive) | > 100 µM (inactive) | > 100 µM (inactive) | > 100 µM (inactive) | > 100 µM (inactive) | > 100 µM (inactive) | > 100 µM (inactive) | 25.9 µM (inactive) | > 100 µM (inactive) | > 100 µM (inactive) |
| Cc1nc2ccc(Cl)cc2c2c1CCS2 | > 100 µM (inactive) | 90.2 µM (inactive) | 33.3 µM (inactive) | 51.4 µM (inactive) | 47.5 µM (inactive) | 55.2 µM (inactive) | > 100 µM (inactive) | 91.2 µM (inactive) | 41.8 µM (inactive) | > 100 µM (inactive) | > 100 µM (inactive) | 48.9 µM (inactive) | 97.7 µM (inactive) | 40.9 µM (inactive) | > 100 µM (inactive) | 75 µM (inactive) | 92 µM (inactive) | 28.6 µM (inactive) | 49.2 µM (inactive) | 47.8 µM (inactive) |
| N#C/C=C(/NC(=O)Nc1ccccc1)N1CCCC1 | > 47.4 µM (inactive) | > 45 µM (inactive) | > 33.1 µM (inactive) | > 39.9 µM (inactive) | > 100 µM (inactive) | > 45.9 µM (inactive) | > 85.1 µM (inactive) | > 50.9 µM (inactive) | > 72.6 µM (inactive) | > 47.9 µM (inactive) | > 54.8 µM (inactive) | > 55 µM (inactive) | 45.6 µM (inactive) | > 59.4 µM (inactive) | > 31.5 µM (inactive) | > 49.3 µM (inactive) | > 32.5 µM (inactive) | > 86.1 µM (inactive) | > 55.8 µM (inactive) | > 55.8 µM (inactive) |
| COC(=O)C1=C(C(=O)OC)SC(=C2SC3=C(SC(=C4SCCS4)S3)S2)S1 | > 100 µM (inactive) | > 100 µM (inactive) | > 100 µM (inactive) | > 100 µM (inactive) | > 100 µM (inactive) | > 100 µM (inactive) | > 100 µM (inactive) | > 100 µM (inactive) | > 100 µM (inactive) | > 100 µM (inactive) | > 100 µM (inactive) | > 100 µM (inactive) | > 100 µM (inactive) | > 100 µM (inactive) | > 100 µM (inactive) | > 100 µM (inactive) | > 100 µM (inactive) | 86.5 µM (inactive) | > 100 µM (inactive) | > 100 µM (inactive) |
| COC(=O)CC1C2CC3C(C2=O)C13 (stereo not given) | > 100 µM (inactive) | > 100 µM (inactive) | > 100 µM (inactive) | > 100 µM (inactive) | > 100 µM (inactive) | > 100 µM (inactive) | > 100 µM (inactive) | > 100 µM (inactive) | > 100 µM (inactive) | > 100 µM (inactive) | > 100 µM (inactive) | > 100 µM (inactive) | > 100 µM (inactive) | > 100 µM (inactive) | > 100 µM (inactive) | > 100 µM (inactive) | > 100 µM (inactive) | > 100 µM (inactive) | > 100 µM (inactive) | > 100 µM (inactive) |
